This is an account of results in patent US20250127778A1, “CANCER IMMUNOTHERAPY COMPOSITION CONTAINING INTERACTION INHIBITOR OF STING AND TRIM29 AS ACTIVE INGREDIENT” (SPARK BIOPHARMA, INC, priority 2021, published 2025).

In one data set the target is T1, TRIM29 (Mus musculus, UniProt Q8R2Q0).
T1 construct: endogenous in cells; host or cells: Raw264.7
T1 sequence (Q8R2Q0 1-587): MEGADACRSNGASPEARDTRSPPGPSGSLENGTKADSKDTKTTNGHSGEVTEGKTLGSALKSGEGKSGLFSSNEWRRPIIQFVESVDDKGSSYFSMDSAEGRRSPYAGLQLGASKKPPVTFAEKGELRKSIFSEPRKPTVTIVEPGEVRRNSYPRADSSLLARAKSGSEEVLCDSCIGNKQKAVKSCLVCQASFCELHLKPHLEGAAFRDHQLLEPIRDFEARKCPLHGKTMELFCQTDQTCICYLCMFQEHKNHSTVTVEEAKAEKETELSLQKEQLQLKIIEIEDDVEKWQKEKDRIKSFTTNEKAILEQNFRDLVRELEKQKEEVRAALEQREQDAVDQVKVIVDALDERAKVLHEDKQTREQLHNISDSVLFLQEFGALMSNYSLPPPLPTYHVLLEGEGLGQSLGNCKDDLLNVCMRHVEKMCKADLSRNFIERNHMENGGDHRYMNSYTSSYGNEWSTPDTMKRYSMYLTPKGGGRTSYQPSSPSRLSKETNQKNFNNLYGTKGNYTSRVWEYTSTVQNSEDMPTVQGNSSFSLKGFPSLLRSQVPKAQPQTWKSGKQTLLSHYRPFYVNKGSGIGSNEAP
Nature of the data set: ITDRF in Raw264.7 cells, TRIM29. The note with it: FIG. 14. The data set is classed as binding. From the text:
It was verified whether the oxopiperazine derivative of the present invention was bound to STING among STING and TRIM29 to inhibit interaction thereof, based on the compound of Formula 1, by the cellular thermal shift assay (CETSA) and the isothermal dose response fingerprint (ITDRF) which were major technologies for verifying the interaction between small molecule compounds and target proteins. (D. M. Molinaetal., Science 2013, 341, 84-87.)
To verify the target of the compound of Formula 1 using the CETSA technique, the human A431 cell lines and mouse Raw264.7 cell lines were seeded on a 100-mm or 150-mm culture dish and cultured for one day. […] Afterwards, centrifugation was performed at 20000 g for 20 minutes at 4° C., the supernatant was transferred to a new container, and each concentration was measured by using the Micro BCA™ protein assay kit (ThermoFisher) according to the protocol of the manufacturer. The concentration of each sample was equally adjusted by using the RIPA lysis buffer, the 5× SDS-PAGE loading buffer (Biosesang) was added according to the ratio of the manufacturer, and the resultant was treated at 95° C. for 5 minutes and analyzed by using the Western blotting method described above.

The next data set concerns CD8+ T cells. Nature of the data set: T cell death analysis (Annexin V/7-AAD) of CD8+ T cells. The note with it: alone or in combination with cGAMP, 24 hours; FIG. 21. The data set is classed as cell-based. The protocol:
CD8^+ T cells were obtained from the lymph nodes of C57BL/6 mice and separated by using MACS. CD8^+ T cells were activated on plates pre-coated with 1 μg/mL anti-CD3 and 0.5 μg/mL of anti-CD28 in the presence of 5 ng/ml of IL-2. After incubation for 24 hours in a 5% CO2 incubator at 37° C., activated CD8^+ T cells were treated with cGAMP and/or the compound of Formula 1 in various concentrations and incubated for additional 24 hours. The cells were harvested and stained with Annexin V/7-AAD to observe cell death. Data shown refer to at least three independent experiments.

Data set [1] is described as follows: Body weight and toxicity signals in CT26 syngeneic mouse model. The data set is classed as in vivo. The note with it: treated individually or in combination, FIG. 24. The protocol: 2×10^5 CT26 cell lines were prepared in 50 μL culture medium and subcutaneously injected. […] The cGAMP solution was manufactured with a final composition of PEG400:distilled water=40:60, and 20 μL was injected each time. The solution of the compound of Formula 1 was manufactured with the composition of DMSO:PEG400:distilled water=2:40:58, and 20 μL was injected each time. The cGAMP solution was injected once every two days, four times in total, and the solution of the compound of Formula 1 was injected once every four days, two times in total, starting with the second administration of cGAMP. The size of the tumor was measured by using calipers every two days, and the volume thereof was calculated as (length×width×height/2). The body weight of the mice was also measured every two days.

Data set [2] has as its system primary tumor and secondary tumor. Nature of the data set: Primary and secondary tumor model for anticancer immune system construction. The data set is classed as in vivo, mouse. The note with it: FIG. 30. From the text: It was verified whether, under the treatment of cGAMP and the compound of Formula 1 in combination, in addition to the results of increasing the antigen presentation efficacy that were confirmed in FIGS. 18 to 21, the anticancer immune system was constructed throughout the organism also in the animal model, so that activated cytotoxic T cells were able to remove cancer cells in other locations to which drugs are not injected.

[3] abbreviates: combination with cGAMP compared with single administration of cGAMP.

For the molecule `COc1ccc(CC2=CN(c3ccc(C(=O)NC[C@H]4CCCO4)cc3[N+](=O)[O-])[C@H](C(C)C)C(=O)N2Cc2ccc(O)cc2)cc1` [Formula 1, 4-((R)-4-(4-hydroxybenzyl)-2-isopropyl-5-(4-methoxybenzyl)-3-oxo-3,4-dihydropyrazin-1 (2H)-yl)-3-nitro-N-(((R)-tetrahydrofuran-2-yl)methyl)benzamide], the “ITDRF effect on TRIM29” value on TRIM29 is reported as “without affecting TRIM29”. In the data set with CD8+ T cells, the “death of cytotoxic T cells” value is on record as “did not induce or promote the death of cytotoxic T cells”. For the same molecule, the “body weight change or signal of toxicity” value in data set [1] was “significant change in body weight or signal of toxicity was not observed”. In addition, in data set [2] (setting [3]), the “final tumor mass of primary tumor” value is “reduced” and the primary tumor growth entry is given as “inhibited”. Also, in data set [2] (secondary tumor not directly injected), the “tumor death in secondary carcinomas” value is on record as “tumor death also effectively occurred”.
